Assay results published in US8377943B2, “2,4-diaminopyrimidine derivates as PTK2-inhibitors for the treatment of abnormal cell growth” (Boehringer Ingelheim International GmbH, priority 2008, dated 2013).

What was measured:
[1] = biological target: T1, PTK2 (Homo sapiens, UniProt Q05397); experiment: PTK2 Enzyme Test (DELFIA assay, poly-Glu-Tyr substrate); assay type: biochemical; conditions: active PTK2 enzyme, 50 μM ATP in ATP Mix, 1 h pre-incubation
T1 construct: purchased Invitrogen PV3832
Procedure, shortened: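 Active PTK2 (0.01 μg/well) pre-incubated 1 h at RT with compound, then reacted 1 h with 50 μM ATP (in ATP mix) and poly(Glu,Tyr) 4:1 substrate, 2% DMSO final, pH 7.5. Biotinylated product captured on streptavidin, detected by Eu-PY20 time-resolved fluorescence; IC50 by sigmoidal fit, variable Hill slope.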

[2] = biological target: T2, PTK2-phosphorylation at tyrosine 397 (pY397) (Homo sapiens, UniProt Q05397); experiment: Phospho-PTK2 (pY397) Assay in PC-3 cells; assay type: cell-based; conditions: PC-3 prostate carcinoma cells, 2 h incubation; read-out: PC3pPTK2 Y397 EC50
T2 construct: endogenous in cells; host or cells: PC-3 (ATCC CRL-1435)
Procedure, shortened: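 PC-3 cells (2×10^4/well, F12K + 10% FCS) exposed to compound (about 0.8 nM–50 μM, 1% DMSO final) for 2 h at 37 °C. Then formaldehyde-fixed and immunostained with anti-pY397 PTK2 (total PTK2 control) and an HRP secondary. EC50 from sigmoidal fit with variable Hill slope.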

T2 sequence (Q05397 whole entry): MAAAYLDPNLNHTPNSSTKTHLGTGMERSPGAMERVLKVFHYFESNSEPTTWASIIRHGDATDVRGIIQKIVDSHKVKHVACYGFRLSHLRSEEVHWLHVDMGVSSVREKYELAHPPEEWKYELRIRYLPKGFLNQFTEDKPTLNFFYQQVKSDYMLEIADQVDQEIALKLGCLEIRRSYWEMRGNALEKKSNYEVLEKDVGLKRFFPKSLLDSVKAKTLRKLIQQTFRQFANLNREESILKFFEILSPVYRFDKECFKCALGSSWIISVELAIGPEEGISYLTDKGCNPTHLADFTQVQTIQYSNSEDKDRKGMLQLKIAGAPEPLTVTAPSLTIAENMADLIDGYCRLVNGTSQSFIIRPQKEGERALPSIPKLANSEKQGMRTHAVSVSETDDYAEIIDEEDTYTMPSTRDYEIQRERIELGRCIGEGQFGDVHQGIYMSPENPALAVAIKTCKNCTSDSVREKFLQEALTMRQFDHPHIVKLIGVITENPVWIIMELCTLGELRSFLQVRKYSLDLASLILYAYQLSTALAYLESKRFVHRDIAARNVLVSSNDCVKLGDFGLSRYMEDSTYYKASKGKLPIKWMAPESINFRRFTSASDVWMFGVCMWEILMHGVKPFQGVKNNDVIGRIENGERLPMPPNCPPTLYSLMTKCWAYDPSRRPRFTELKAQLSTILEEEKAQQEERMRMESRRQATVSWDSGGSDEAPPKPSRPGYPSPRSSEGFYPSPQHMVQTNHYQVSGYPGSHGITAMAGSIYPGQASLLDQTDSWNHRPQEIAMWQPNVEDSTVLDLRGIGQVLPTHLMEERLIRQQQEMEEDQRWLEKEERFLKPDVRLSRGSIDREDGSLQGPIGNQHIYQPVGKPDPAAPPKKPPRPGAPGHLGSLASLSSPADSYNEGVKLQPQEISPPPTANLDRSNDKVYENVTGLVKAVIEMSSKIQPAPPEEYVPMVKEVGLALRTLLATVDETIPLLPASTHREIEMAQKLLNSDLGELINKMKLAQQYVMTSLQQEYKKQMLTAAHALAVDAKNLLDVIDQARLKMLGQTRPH
T1 sequence (Q05397 whole entry): as above

SMILES | IC50 [1] [nM] | EC50 [2] [nM]
COc1cc(CNC2CCCCC2)ccc1Nc1ncc(C(F)(F)F)c(NCc2ccc(C)cc2N(C)S(C)(=O)=O)n1 [Example 109] | 2 | 2
COC(=O)Nc1cc(OC)c(Nc2ncc(C(F)(F)F)c(NCc3ccc(OC)cc3N(C)S(C)(=O)=O)n2)cc1C [Example 125] | 5 | 3
COc1cc(C(=O)NC2CCC(N3CCOCC3)CC2)c(C)cc1Nc1ncc(C(F)(F)F)c(NCc2ccc(C)cc2N(C)S(C)(=O)=O)n1 (stereo not drawn) [Example 84] | 3 | 1
Cc1ccc(CNc2nc(Nc3ccc(C(=O)NC4CCN(C)CC4)cc3C)ncc2C(F)(F)F)c(N(C)S(C)(=O)=O)c1 [Example 80] | 0.98 | 1
COc1cc(C(=O)NC2CCN(C)CC2)ccc1Nc1ncc(C(F)(F)F)c(NCc2ccc(Cl)cc2N(C)S(C)(=O)=O)n1 [Example 111] | 1 | 3
COc1cc(C(=O)NC2CCN(CC(F)F)CC2)ccc1Nc1ncc(C(F)(F)F)c(NCc2ccc(C)cc2N(C)S(C)(=O)=O)n1 [Example 18] | 3 | 0.2
COc1cc(N2CCN(C)CC2)ccc1Nc1ncc(C(F)(F)F)c(NCc2ccc(F)cc2N(C)S(C)(=O)=O)n1 [Example 99] | 1 | 2
CCNCc1ccc(Nc2ncc(C(F)(F)F)c(NCc3ccc(C)cc3N(C)S(C)(=O)=O)n2)c(OC)c1 [Example 66] | 1 | 0.7
COc1cc(C(=O)N(C)C2CCN(C)CC2)ccc1Nc1ncc(C(F)(F)F)c(NCc2ccc(C)cc2N(C)S(C)(=O)=O)n1 [Example 108] | 2 | 2
CCN1CCC[C@H]1CNC(=O)c1ccc(Nc2ncc(C(F)(F)F)c(NCc3ccc(C)cc3N(C)S(C)(=O)=O)n2)c(OC)c1 [Example 45] | 3 | 0.44
CNC(=O)c1ccc(Nc2ncc(C(F)(F)F)c(NCc3ccc(C)cc3N(C)S(C)(=O)=O)n2)c(OC)c1 [Example 69] | 1 | 0.74
COc1cc(C(=O)N(C)C)c(C)cc1Nc1ncc(C(F)(F)F)c(NCc2ccc(C)cc2N(C)S(C)(=O)=O)n1 [Example 123] | 9 | 3
COc1cc(C(=O)NCCN(C)C)ccc1Nc1ncc(C(F)(F)F)c(NCc2ccc(C)cc2N(C)S(C)(=O)=O)n1 [Example 4] | 1 | 0.11
COc1cc(CN(C)C)ccc1Nc1ncc(C(F)(F)F)c(NCc2ccc(F)cc2N(C)S(C)(=O)=O)n1 [Example 5] | 0.86 | 0.12
COc1cc(C(=O)NC2CCOC2)ccc1Nc1ncc(C(F)(F)F)c(NCc2ccc(C)cc2N(C)S(C)(=O)=O)n1 (stereo not drawn) [Example 64] | 3 | 0.67
COc1ccc(CNc2nc(Nc3ccc(NC(C)=O)c(Cl)c3)ncc2C(F)(F)F)c(N(C)S(C)(=O)=O)c1 [Example 105] | 2 | 2
COc1cc(C(=O)N[C@H]2CC[C@H](N3CCN(CC4CC4)CC3)CC2)ccc1Nc1ncc(C(F)(F)F)c(NCc2ccc(C)cc2N(C)S(C)(=O)=O)n1 [Example 95] | 3 | 2
COc1cc(C(=O)NC2CCN(C(C)=O)CC2)ccc1Nc1ncc(C(F)(F)F)c(NCc2ccc(C)cc2N(C)S(C)(=O)=O)n1 [Example 9] | 6 | 0.14
COc1cc(CNC2CC2)ccc1Nc1ncc(C(F)(F)F)c(NCc2ccc(C)cc2N(C)S(C)(=O)=O)n1 [Example 72] | 3 | 0.75
COc1cc(C(=O)NC[C@@H](C)N2CCCC2)ccc1Nc1ncc(C(F)(F)F)c(NCc2ccc(C)cc2N(C)S(C)(=O)=O)n1 [Example 6] | 3 | 0.13

SMILES | IC50 [1] [nM] | EC50 [2] [nM]
CNC(=O)c1ccc(Nc2ncc(C(F)(F)F)c(NCc3ccc(OC)cc3N(C)S(C)(=O)=O)n2)c(OC)c1 [Example 81] | 1 | 1
CNC(=O)c1cc(OC)c(Nc2ncc(C(F)(F)F)c(NCc3ccc(C)cc3N(C)S(C)(=O)=O)n2)cc1C [Example 54] | 3 | 0.55
COc1cc(C(=O)N[C@H]2CCCN(C3CCCC3)C2)ccc1Nc1ncc(C(F)(F)F)c(NCc2ccc(C)cc2N(C)S(C)(=O)=O)n1 [Example 47] | 6 | 0.5
COc1cc(N2CCN(C3COC3)CC2)ccc1Nc1ncc(C(F)(F)F)c(NCc2ccc(C)cc2N(C)S(C)(=O)=O)n1 [Example 32] | 4 | 0.3
COc1cc(N2CCN(C(C)C)CC2)ccc1Nc1ncc(C(F)(F)F)c(NCc2ccc(F)cc2N(C)S(C)(=O)=O)n1 [Example 75] | 1 | 0.84
COc1cc(C(=O)N[C@H]2CC[C@H](N3CCOCC3)CC2)ccc1Nc1ncc(C(F)(F)F)c(NCc2ccc(C)cc2N(C)S(C)(=O)=O)n1 [Example 76] | 2 | 0.88
CCCNC(=O)c1ccc(Nc2ncc(C(F)(F)F)c(NCc3ccc(F)cc3N(C)S(C)(=O)=O)n2)c(OC)c1 [Example 115] | 5 | 3
CCc1cc(C(=O)NOC)ccc1Nc1ncc(C(F)(F)F)c(NCc2ccc(C)cc2N(C)S(C)(=O)=O)n1 [Example 122] | 2 | 3
COc1cc(C(=O)N[C@@H]2CCCN(C3COC3)C2)ccc1Nc1ncc(C(F)(F)F)c(NCc2ccc(C)cc2N(C)S(C)(=O)=O)n1 [Example 116] | 3 | 3
CCc1cc(C(=O)NC2CCN(CC)CC2)ccc1Nc1ncc(C(F)(F)F)c(NCc2ccc(C)cc2N(C)S(C)(=O)=O)n1 [Example 101] | 2 | 2
CC(=O)Nc1ccc(Nc2ncc(C(F)(F)F)c(NCc3ccc(C)cc3N(C)S(C)(=O)=O)n2)cc1Cl [Example 104] | 2 | 2
COc1cc(C(=O)NC2CCNCC2)ccc1Nc1ncc(C(F)(F)F)c(NCc2ccc(C)cc2N(C)S(C)(=O)=O)n1 [Example 83] | 2 | 1
COc1cc(C(=O)NC2CCN(C(C)C)CC2)ccc1Nc1ncc(C(F)(F)F)c(NCc2ccc(C)cc2N(C)S(C)(=O)=O)n1 [Example 15] | 3 | 0.18
COc1cc(C(=O)NC2CCN(C)CC2)c(C)cc1Nc1ncc(C(F)(F)F)c(NCc2ccc(C)cc2N(C)S(C)(=O)=O)n1 [Example 100] | 1 | 2
CCN1CCC(NC(=O)c2cc(OC)c(Nc3ncc(C(F)(F)F)c(NCc4ccc(C)cc4N(C)S(C)(=O)=O)n3)cc2F)CC1 [Example 1] | 2 | 0.05
COc1ccc(CNc2nc(Nc3cc(F)c(C(=O)N[C@@H]4CCN(C)C4)cc3OC)ncc2C(F)(F)F)c(N(C)S(C)(=O)=O)c1 [Example 41] | 2 | 0.39
COc1cc(C(=O)N[C@@H]2CCCN(CC3CC3)C2)ccc1Nc1ncc(C(F)(F)F)c(NCc2ccc(C)cc2N(C)S(C)(=O)=O)n1 [Example 85] | 3 | 1
COc1cc(N2CCN(CC(=O)N3CCOCC3)CC2)ccc1Nc1ncc(C(F)(F)F)c(NCc2ccc(C)cc2N(C)S(C)(=O)=O)n1 [Example 42] | 4 | 0.39
COc1cc(C(=O)N[C@@H]2CCN(C)C[C@@H]2F)c(F)cc1Nc1ncc(C(F)(F)F)c(NCc2ccc(C)cc2N(C)S(C)(=O)=O)n1 [Example 24] | 3 | 0.23
